Data reported in patent US4482554A, “Pharmaceutical compositions containing oxicam derivatives and process for their preparation” (Warner-Lambert Company, priority 1982, dated 1984).
Counter-ions that a name gives are not always drawn. Like-named read-outs stand apart in the source and are kept apart here. One block for each molecule: values may come before it.

What was measured:
[1] = solubility in water of stoichiometric oxicam salts; assay type: physicochemical
[2] = stability of solutions / precipitation of active material on storage; assay type: physicochemical
Source text: Especially in the case of oxicam derivatives of general formula (I), there is, in addition, the serious problem of instability of their solutions. Even when such compounds or the salts thereof have been brought into solution, these show a strong tendency, even after a relatively short time, to deposit particles and again to precipitate out a part of the active material. For injection solutions, this is naturally not acceptable.
There are thereby unexpectedly obtained, which was not to have been foreseen by the expert, highly concentrated solutions with a content of up to 30% and preferably of 10 to 20%, referred to the amount of active material used, which, even after storage for 15 months, display no deposition of active material. It is most surprising that this stability is fully retained even at low temperatures.

solubility ([1]; stoichiometric salt with methylglucamine, per milliliter of solution, read-out: active material per milliliter of solution): 49 mg/mL
dependence of degree of precipitation on concentration ([2]; salt solution, over wide ranges): not dependent upon the concentration
Compound: Cc1cc(NC(=O)C2=C(O)c3ccccc3S(=O)(=O)N2C)no1
stability of the solution ([2]; stoichiometric salts, precipitation of active material): unstable and again precipitate out considerable amounts of active material

solubility in water after storage ([1]; after 4 months, decreased by precipitation from the solution, 175200 min): 20 mg/mL
solubility in water, initial ([1]; shortly after preparation): about 30 mg/ml
Compound: Cc1cc(NC(=O)C2=C(O)c3ccccc3S(=O)(=O)N2C)no1 [potassium salts]

solubility ([1]; shortly after preparation, read-out: solubility in water, initial): ~24 mg/mL
Compound: Cc1cc(NC(=O)C2=C(O)c3ccccc3S(=O)(=O)N2C)no1 [sodium salts of isoxicam]
